Experimental data as given in US10556854B2, “Bacterial efflux pump inhibitors” (RUTGERS, THE STATE UNIVERSITY OF NEW JERSEY, priority 2016, dated 2020).
Where a name gives a salt, the structure may show the parent alone.

Assays:
E. coli = experiment: MIC-based assay for potentiation of antibiotics that are known efflux pump substrates (Test A), E. coli; type: cell-based; conditions: fold lowering of MIC of antibiotic (e.g., clarithromycin and levofloxacin) with EPI compound at 1.6 to 12.5 μg/mL; Escherichia coli ATCC 25922
Text: (§1) The ability of a compound disclosed herein to inhibit a bacterial efflux pump can be determined using a method like Test A or Test B as described in Example 13 and as shown in Table 1.
(§2) Test A. Minimum Inhibitory Concentration (MIC)-Based Assay for Potentiation of Antibiotics that are Known Efflux Pump Substrates:
(§3) MIC-based assays were used to evaluate the impact of potential efflux pump inhibiting (EPI) compounds on the MICs of antibiotics (e.g., clarithromycin and levofloxacin) known to be substrates for Gram-negative bacterial efflux pumps. The assays were conducted in accordance with Clinical and Laboratory Standards Institute (CLSI) guidelines for broth microdilution, with the modification that assays were conducted in the presence and absence of the test EPI compounds. When present, the EPI compounds were added to cation-adjusted Mueller-Hinton (CAMH) broth (Becton, Dickinson and Co., Franklin Lakes, N.J.) at a final concentration in the range of 1.6 to 12.5 μg/mL.
(§4) Log-phase Gram-negative bacteria were added to 96-well microtiter plates (at 5×10^5 colony forming units (CFU) per mL) containing two-fold serial dilutions of antibiotic in CAMH broth either in the absence or presence of the test EPI compounds. In all assays, each serial dilution of antibiotic was present in duplicate. The final volume in each well was 0.1 mL, and the microtiter plates were incubated aerobically for 24 hours at 37° C. Bacterial growth was then monitored by measuring the optical density (OD) at 600 nm using a VersaMax® plate reader (Molecular Devices, Inc., Sunnyvale, Calif.), with the MIC being defined as the lowest compound concentration at which growth was ≥90% inhibited compared to antibiotic-free control. The following Gram-negative bacterial strains were included in these assays: • Escherichia coli ATCC 25922 • Klebsiella pneumoniae ATCC 13883 and ATCC 10031 • Pseudomonas aeruginosa ATCC 27853. Test B. Fluorescence-Based Cellular Assay for Efflux Inhibition: […]

P. aeruginosa = experiment: MIC-based assay for potentiation of antibiotics that are known efflux pump substrates (Test A), P. aeruginosa; type: cell-based; conditions: fold lowering of MIC of antibiotic (e.g., clarithromycin and levofloxacin) with EPI compound at 1.6 to 12.5 μg/mL; Pseudomonas aeruginosa ATCC 27853
Text: as §1, §2, §3, §4

SMILES	Active in E. coli (E. coli)	Active in P. aeruginosa (P. aeruginosa)
CC(C)C(N)CC[C@H](N)CNC(CCc1ccccc1)CCc1ccccc1.Cl.Cl.Cl (stereo partly drawn) [Example 10, (2S)—N^1-(1,5-diphenylpentan-3-yl)-6-methylheptane-1,2,5-triaminium chloride]	≥256 x	<2x
NCC(N)COC(CCc1ccccc1)CCc1ccccc1 (stereo not shown) [Example 11, 3-((1,5-diphenylpentan-3-yl)oxy)propane-1,2-diamine]	<2x	<2x
NCC[C@H](N)CCNC(CCc1ccccc1)CCc1ccccc1 [Example 5, (S)—N^1-(1,5-Diphenylpentan-3-yl)pentane-1,3,5-triamine 3 TFA]	≥32x	≥16x
NC[C@@H](N)CCCNCC(CCc1ccccc1)CCc1ccccc1 [Example 8, (S)—N^5-(2-phenethyl-4-phenylbutyl)pentane-1,2,5-triaminium 2,2,2-trifluoroacetate]	≥32x	≥32x
NCC(N)COCC(CCc1ccccc1)CCc1ccccc1 (stereo not shown) [Example 12, 3-(2-phenethyl-4-phenylbutoxy)propane-1,2-diamine]	8 x	<2x
NCCC[C@H](N)CNCC(CCc1ccccc1)CCc1ccccc1 [Example 7, (S)—N^1-(2-phenethyl-4-phenylbutyl)pentane-1,2,5-triamine 3TFA]	≥32x	≥32x
NCCC[C@H](N)CNC(CCc1ccccc1)CCc1ccccc1 [Example 1, (S)—N^1-(1,5-Diphenylpentan-3-yl)pentane-1,2,5-triamine 3 TFA]	≥8x	<2x
NC[C@@H](N)CCNC(CCc1ccccc1)CCc1ccccc1 [Example 4, (S)—N^4-(1,5-diphenylpentan-3-yl)butane-1,2,4-triamine 3 TFA]	≥2x	≥2x
NCC[C@H](N)CNC(CCc1ccccc1)CCc1ccccc1 [Example 3, (S)—N^1-(1,5-diphenylpentan-3-yl)butane-1,2,4-triamine 3TFA]	≥4x	≥2x
CC(C)C(N)CC[C@H](N)CNCC(CCc1ccccc1)CCc1ccccc1 (stereo partly shown) [Example 9]	≥128x	<2x
NC[C@@H](N)CCCNC(CCc1ccccc1)CCc1ccccc1 [Example 2, (S)—N^5-(1,5-diphenylpentan-3-yl)pentane-1,2,5-triamine 3 TFA]	≥16x	≥4x
